# Laboratory results: ChEMBL document CHEMBL6121007, “Design, synthesis and evaluation of pyrimidine derivatives as sedative-hypnotic agents” (Eur J Med Chem, 2025)
# The source made the active and inactive calls. The calls are words filed in the database; no cut-off is given here.
# Columns and labels:
# Type in all cases: functional, organism-based
# [1] = system: Mus musculus; experiment: Sedative-hypnotic activity in mouse assessed as reduction in grip strength score at 50 mg/kg, ip administrated as single dose and measured after 30 mins by grip strength test
# [2] = system: Mus musculus; experiment: Sedative-hypnotic activity in mouse assessed as decrease in number of square crossing at 50 mg/kg, ip administrated as single dose and measured after 30 mins by open field test
# [3] = system: Mus musculus; experiment: Sedative-hypnotic activity in mouse assessed as increase in latency time of first step out of center square at 5 mg/kg, ip administrated as single dose and measured after 30 mins by open field test
SMILES,Activity [1],Activity [2],Activity [3]
CCn1c2ccccc2c2cc(Nc3ccnc(Nc4ccc(CC(C)C)cc4)n3)ccc21,Active,Active,–
CCn1c2ccccc2c2cc(Nc3ccnc(Nc4ccc5c(cnn5C)c4)n3)ccc21,Active,Active,–
Cc1nc2cc(Nc3ccnc(Nc4ccc(F)c(C)c4)n3)ccc2s1,Active,Active,–
CCn1c2ccccc2c2cc(Nc3ccnc(Nc4ccc5sc(C)nc5c4)n3)ccc21,Active,Active,–
CCn1c2ccccc2c2cc(Nc3nccc(Nc4ccc5sc(C)nc5c4)n3)ccc21,Active,Active,–
CCn1c2ccccc2c2cc(Nc3ccnc(Nc4ccc5nc(C)[nH]c5c4)n3)ccc21,Active,Active,–
CCn1c2ccccc2c2cc(Nc3ccnc(Nc4ccc5c(c4)c4ccccc4n5CC)n3)ccc21,Active,Active,–
CCn1c2ccccc2c2cc(Nc3ccnc(Nc4cc(C)cc(F)c4)n3)ccc21,Active,Active,–
Cc1nc2ccc(Nc3nccc(Nc4ccc5sc(C)nc5c4)n3)cc2[nH]1,Active,Active,–
Cc1nc2cc(Nc3ccnc(Nc4ccc5sc(C)nc5c4)n3)ccc2s1,Active,Active,–
CCn1c2ccccc2c2cc(Nc3ccnc(Nc4ccc(C(C)C)cc4)n3)ccc21,Active,Active,–
CCn1c2ccccc2c2cc(Nc3ccnc(Nc4ccc(C)cc4)n3)ccc21,Active,Active,–
CN1C(=O)CN=C(c2ccccc2)c2cc(Cl)ccc21,–,–,inactive
CCn1c2ccccc2c2cc(Nc3ccnc(Nc4ccc(N5CCCCC5)cc4)n3)ccc21,Active,Active,–
COc1cc(Nc2nccc(Nc3ccc4sc(C)nc4c3)n2)ccc1O,Active,Active,–
Cc1nc2cc(Nc3ccnc(Nc4ccc5c(cnn5C)c4)n3)ccc2s1,Active,Active,–
COC(=O)c1ccc(Nc2nccc(Nc3ccc4sc(C)nc4c3)n2)cc1OC,Active,inactive,–
CCn1c2ccccc2c2cc(Nc3ccnc(Nc4ccc5[nH]c(C)cc5c4F)n3)ccc21,Active,Active,–
CCc1ccc(Nc2nccc(Nc3ccc4c(c3)c3ccccc3n4CC)n2)cc1,Active,Active,–
CCn1c2ccccc2c2cc(Nc3ccnc(Nc4ccc(F)c(C)c4)n3)ccc21,Active,Active,–
CCn1cc(Nc2nccc(Nc3ccc4c(c3)c3ccccc3n4CC)n2)cn1,Active,Active,–
CCn1c2ccccc2c2cc(Nc3ccnc(Nc4cc(OC)cc(OC)c4)n3)ccc21,Active,Active,–
CCn1c2ccccc2c2cc(Nc3ccnc(Nc4ccc(C(F)(F)F)cc4)n3)ccc21,Active,Active,–
Cc1cc2c(F)c(Nc3nccc(Nc4ccc5sc(C)nc5c4)n3)ccc2[nH]1,Active,Active,–
CCn1c2ccccc2c2cc(Nc3ccnc(Nc4cnn(C)c4)n3)ccc21,Active,Active,–
